This passage reports IC50 results from patent publication US8828994B2, “Di- and tri-substituted oxathiazine derivatives, method for the production thereof, use thereof as medicine and drug containing said derivatives and use thereof” (SANOFI, priority 2011, dated 2014).

The structures appear in SMILES notation.

human 11β-HSD1 microsome fraction, sequence (P28845 whole entry): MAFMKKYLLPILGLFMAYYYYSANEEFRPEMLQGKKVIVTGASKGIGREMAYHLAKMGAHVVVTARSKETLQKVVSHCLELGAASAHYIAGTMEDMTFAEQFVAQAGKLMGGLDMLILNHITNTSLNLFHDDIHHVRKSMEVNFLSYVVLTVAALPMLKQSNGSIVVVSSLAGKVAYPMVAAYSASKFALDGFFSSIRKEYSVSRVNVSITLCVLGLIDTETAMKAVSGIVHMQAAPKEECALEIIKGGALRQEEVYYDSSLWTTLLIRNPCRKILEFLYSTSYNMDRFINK

This experiment addresses human 11β-HSD1 microsome fraction (Homo sapiens, UniProt P28845). Description: Enzymatic 11beta-HSD1 test (SPA-based detection). As to conditions: [1,2-3H]-cortisone, NADPH, 37° C., 1 hour, read-out: IC50 (nM), biological activity. Format: biochemical. The procedure:
First of all, 20 μl of the human 11β-HSD1 microsome fraction (0.2 μg of protein), prepared in 50 mM HEPES, 0.1% BSA (w/v), were applied to a plate with 384 wells. The test compounds (0.09 μl) were applied to the assay plate in 100% DMSO. The reaction was started by addition of 20 μl of [1,2-^3H]-cortisone (0.1 μCi/[…]) in assay buffer comprising 25 mM HEPES, 100 mM KCl, 5 mM NaCl, 2 mM MgCl2 and 0.25 mM NADPH. The plate was agitated at 37° C. for 1 hour. At the same time, a stop solution comprising 20 mg/ml SPA-PVT beads, 1.6 mg/ml monoclonal cortisol antibody and 0.01 mM SSR110887 (inhibitor from the Biovitrium patent) in 50 mM HEPES, 1 M NaCl and 1 M KCl was stirred at room temperature. To stop the reaction, 25 μl of the stop solution were added to each well. The plate was agitated gently at room temperature for 1 further hour and then centrifuged at 500 gav for 1 min, in order that the SPA beads could settle out. […] The comparative compound was glycyrrhetinic acid.
Protein and radioactive substrate were dispensed with a Biomek FX unit (Beckman Coulter) for handling liquids. The test compounds were added with a Cybi-Well equipped with a 90 n1 pin tool (CyBio).
Lit.: Solly S, Mundt S S, Zokian H J, Juy-Fang Ding G, Hermanowski-Vosatka A, Strulovici B and Zheng W. High-throughput screening of 11β-Hydroxysteroid dehydrogenase type 1 in scintillation proximity format.
On to `O=S1(=O)N=C(NC2CCCCC2)OC(c2ccccc2)C12CC2` (centres unmarked) [Example 1, Cyclohexyl-(4,4-dioxo-8-phenyl-7-oxa-4lambda6-thia-5-aza-spiro[2.5]oct-5-en-6-yl)-amine], for which the IC50 turned out to be 355 nM. With `CC(C)C1OC(NC2CCCCC2)=NS(=O)(=O)C12CC2` (centres unmarked) [Example 3, Cyclohexyl-(8-isopropyl-4,4-dioxo-7-oxa-4lambda6-thia-5-aza-spiro[2.5]oct-5-en-6-yl)-amine] the figure was 629 nM; with `CCCC1OC(NC2CCCCC2)=NS(=O)(=O)C12CC2` (centres unmarked) [Example 4, Cyclohexyl-(4,4-dioxo-8-propyl-7-oxa-4lambda6-thia-5-aza-spiro[2.5]oct-5-en-6-yl)-amine], 518 nM; with `CC(C)(C)C1OC(NC2CCCCC2)=NS(=O)(=O)C12CC2` (centres unmarked) [Example 5, (8-tert-Butyl-4,4-dioxo-7-oxa-4lambda6-thia-5-aza-spiro[2.5]oct-5-en-6-yl)-cyclohexyl-amine], 438 nM. `CC1OC(NC2CCCCC2)=NS(=O)(=O)C12CC2` (centres unmarked) [Example 6, Cyclohexyl-(8-methyl-4,4-dioxo-7-oxa-4lambda6-thia-5-aza-spiro[2.5]oct-5-en-6-yl)-amine]: the 50% inhibitory concentration (IC50) came to 598 nM.

A word on the IC50: it is the concentration that gives 50% inhibition.
